Experiments:
[1] = system: Mycobacterium tuberculosis; assay: Minimum inhibition concentration required against isoniazid resistant Mycobacterium tuberculosis was determined in monolayers of mouse bone marrow macrophages; assay type: functional
[2] = system: Mycobacterium tuberculosis; assay: Minimum bactericidal required against isoniazid resistant Mycobacterium tuberculosis was determined in monolayers of mouse bone marrow macrophages; assay type: functional

Question: `NNC(=O)c1ccncc1` [ISONIAZID] was tested. Which MIC [1] did it give?
Answer: > 0.2 µg/mL

Question: And the MBC [2]?
Answer: > 1.6 µg/mL

Source: ChEMBL document CHEMBL1138642, “In vitro advanced antimycobacterial screening of cobalt(II) and copper(II) complexes of fluorinated isonicotinoylhydrazones” (2004)
